Test results as given in patent US4789736A, “Complexes of technetium-99m with propylene amine oximes” (Amersham International plc, priority 1985, dated 1988).
Read-outs that look alike come from different tables or passages of the source. Values belong to the compound of their own block, whether it stands above or below them.

How the values were obtained:
[1] = Rat biodistribution of Tc-99m complexes of separated diastereoisomers of compound 1 (Example 23); format: in vivo, rats; details: for % id/organ, Blood / % id/organ, Brain / % id/organ, Liver: rats
Source text: The experiment of Example 22 was repeated using the separated diastereoisomers of compound 1. The results are given in the Table below and should be compared to those for compound 1 (the mixture) in the Table in […].

[2] = Clinical comparison of dl and meso diastereoisomers of Compound 1, whole body scanning (Example 25a); format: in vivo, normal volunteer subjects (human); details: 20 minutes p.i.; mean; human
Experimental: All clinical studies, involving comparisons between the Tc-99m complexes of dl and meso, and d,l and dl stereoisomers of Compound 1 were conducted in normal volunteer subjects at Aberdeen Royal Infirmary.
(a) Comparison of dl and meso diastereoisomers of Compound 1
Data is then taken from area of interest studies employing a whole body scanning device.

[3] = Clinical comparison of d, l and dl stereoisomers of Compound 1 (Example 25b); format: in vivo, normal volunteers (human); details: 30 minutes p.i.; mean of three studies; human
Experimental: The following table gives the mean of three studies for each stereoisomer, of percentage of injected dose in normal volunteers at 30 minutes p.i.

[4] = Rat biodistribution of Tc-99m complexes from isolated stereoisomers (Example 24); details: for % id/organ, Blood / % id/organ, Brain / % id/organ, Heart / % id/organ, Liver: (a) diastereoisomers, rats, mean from 3 animals; for difference in brain uptake, dl-isomer versus meso-isomer: see Example 24
Experimental: (§1) 0.1 ml of the Tc-99m complex solution was administered by intravenous injection (lateral tail vein) to each of five or six rats (140-220 g). The injected dose was equivalent to approximately 1 mCi of Tc-99m. Three rats were sacrificed at 2 minutes post injection, and 3 at 1 hour or 2 at 2 hours post injection. At dissection, the organs and blood samples shown in the following table were taken, and assayed for radioactivity. The uptake in each organ or tissue was calculated as a percentage of the total activity recovered.
(§2) Data in Tables (a) and (b) are the mean from 3 animals at each time point.

[5] = rat, in vivo
Experimental: as §1, §2

[6] = Animal biodistribution of Tc-99m complexes of ligands, no separation of stereoisomers (Example 22); format: in vivo, rats; details: i.v. rats
Experimental: The ratio of diastereoisomers in the Tc-99m complexes used in this experiment is not known.
The results at 2 minutes and 1 hour p.i. are the mean of 3 animals.
The results at 2 hours p.i. are the mean of 2 animals.

- % id/organ, Blood ([1]; 2 min p.i.): 11.42 % id/organ
- % id/organ, Brain ([1]; 2 min p.i.): 1.99 % id/organ
- % id/organ, Liver ([1]; 2 min p.i.): 9.42 % id/organ
- % id/organ, Blood ([1]; 1 hour p.i.): 10.17 % id/organ
- % id/organ, Brain ([1]; 1 hour p.i.): 1.90 % id/organ
- % id/organ, Liver ([1]; 1 hour p.i.): 9.25 % id/organ
- difference in brain uptake of the two isomers (factor) ([1]; dl versus meso, the better is the dl-isomer): 2.3
- % injected activity, Bladder + Urine [2]: 2.28 % injected activity
- % injected activity, Brain [2]: 4.22 % injected activity
- % injected activity, Kidneys [2]: 3.50 % injected activity
- % injected activity, Liver [2]: 10.22 % injected activity
- percentage of injected dose, Brain [3]: 4.16 percentage of injected dose
- percentage of injected dose, Kidney [3]: 3.03 percentage of injected dose
- percentage of injected dose, Liver [3]: 10.73 percentage of injected dose
- % id/organ, Blood ([4]; 2 mins pi): 11.0 % id/organ
- % id/organ, Brain ([4]; 2 mins pi): 2.1 % id/organ
- % id/organ, Heart ([4]; 2 mins pi): 1.2 % id/organ
- % id/organ, Liver ([4]; 2 mins pi): 11.3 % id/organ
- % id/organ, Blood ([4]; 1 hr pi): 8.6 % id/organ
- % id/organ, Brain ([4]; 1 hr pi): 1.6 % id/organ
- % id/organ, Heart ([4]; 1 hr pi): 0.7 % id/organ
- % id/organ, Liver ([4]; 1 hr pi): 11.9 % id/organ
SMILES: CC(=NO)[C@H](C)NCC(C)(C)CN[C@@H](C)C(C)=NO (relative stereo) [Compound 1 d1, dl-4,8-Diaza-3,6,6,9-tetramethylundecane-2,10-dione bis oxime]
- brain retention and brain imaging, dl-isomer versus meso-isomer ([4]; in words): surprisingly superior to the complex of the meso-isomer

- % id/organ, Blood ([4]; 2 mins pi): 10.5 % id/organ
- % id/organ, Brain ([4]; 2 mins pi): 1.8 % id/organ
- % id/organ, Heart ([4]; 2 mins pi): 1.1 % id/organ
- % id/organ, Liver ([4]; 2 mins pi): 11.6 % id/organ
- % id/organ, Blood ([4]; 1 hr pi): 7.8 % id/organ
- % id/organ, Brain ([4]; 1 hr pi): 1.5 % id/organ
- % id/organ, Heart ([4]; 1 hr pi): 0.7 % id/organ
- % id/organ, Liver ([4]; 1 hr pi): 9.4 % id/organ
SMILES: CC(=NO)[C@H](C)NCCCN[C@@H](C)C(C)=NO (relative stereo) [Compound 2 d1]
- difference in brain uptake, dl-isomer versus meso-isomer ([4]; in words): do not show any marked difference in brain uptake

SMILES: CC(=NO)C(C)NCC(C)CNC(C)C(C)=NO (stereo not shown) [Compound 1 1]
- percentage of injected dose, Brain [3]: 4.30 percentage of injected dose
- percentage of injected dose, Kidney [3]: 4.0 percentage of injected dose
- percentage of injected dose, Liver [3]: 8.06 percentage of injected dose
- % id/organ, Blood ([5]; 2 min): 11.0 % id/organ
- % id/organ, Brain ([5]; 2 min): 2.6 % id/organ
- % id/organ, Liver ([5]; 2 min): 9.6 % id/organ
- % id/organ, Blood ([5]; 60 min): 11.1 % id/organ
- % id/organ, Brain ([5]; 60 min): 2.2 % id/organ
- % id/organ, Liver ([5]; 60 min): 7.7 % id/organ

- % id/organ, Blood ([1]; 2 min p.i.): 5.33 % id/organ
- % id/organ, Brain ([1]; 2 min p.i.): 0.78 % id/organ
- % id/organ, Liver ([1]; 2 min p.i.): 26.86 % id/organ
- % id/organ, Blood ([1]; 1 hour p.i.): 3.17 % id/organ
- % id/organ, Brain ([1]; 1 hour p.i.): 0.53 % id/organ
- % id/organ, Liver ([1]; 1 hour p.i.): 24.24 % id/organ
- % injected activity, Bladder + Urine [2]: 0.6 % injected activity
- % injected activity, Brain [2]: 1.85 % injected activity
- % injected activity, Kidneys [2]: 1.3 % injected activity
- % injected activity, Liver [2]: 16.6 % injected activity
- % id/organ, Blood ([4]; 2 mins pi): 5.0 % id/organ
- % id/organ, Brain ([4]; 2 mins pi): 1.1 % id/organ
- % id/organ, Heart ([4]; 2 mins pi): 0.6 % id/organ
- % id/organ, Liver ([4]; 2 mins pi): 19.9 % id/organ
- % id/organ, Blood ([4]; 1 hr pi): 3.1 % id/organ
- % id/organ, Brain ([4]; 1 hr pi): 0.7 % id/organ
- % id/organ, Heart ([4]; 1 hr pi): 0.2 % id/organ
- % id/organ, Liver ([4]; 1 hr pi): 23.7 % id/organ
SMILES: CC(=NO)[C@H](C)NCC(C)(C)CN[C@H](C)C(C)=NO [Compound 1 meso, meso-4,8-Diaza-3,6,6,9-tetramethylundecane-2,10-dione bis oxime]

- % id/organ, Blood ([4]; 2 mins pi): 6.9 % id/organ
- % id/organ, Brain ([4]; 2 mins pi): 1.7 % id/organ
- % id/organ, Heart ([4]; 2 mins pi): 0.6 % id/organ
- % id/organ, Liver ([4]; 2 mins pi): 17.9 % id/organ
- % id/organ, Blood ([4]; 1 hr pi): 2.8 % id/organ
- % id/organ, Brain ([4]; 1 hr pi): 1.4 % id/organ
- % id/organ, Heart ([4]; 1 hr pi): 0.2 % id/organ
- % id/organ, Liver ([4]; 1 hr pi): 20.7 % id/organ
SMILES: CC(=NO)[C@H](C)NCCCN[C@H](C)C(C)=NO [Compound 2 meso]
- difference in brain uptake, dl-isomer versus meso-isomer ([4]; in words): do not show any marked difference in brain uptake

- % id/organ, Blood ([6]; 2 min pi, mean of 3 animals): 6.8 % id/organ
- % id/organ, Brain ([6]; 2 min pi, mean of 3 animals): 1.1 % id/organ
- % id/organ, Heart ([6]; 2 min pi, mean of 3 animals): 0.2 % id/organ
- % id/organ, Liver ([6]; 2 min pi, mean of 3 animals): 27.8 % id/organ
- % id/organ, Blood ([6]; 2 hr pi, mean of 2 animals): 2.1 % id/organ
- % id/organ, Brain ([6]; 2 hr pi, mean of 2 animals): 0.7 % id/organ
- % id/organ, Heart ([6]; 2 hr pi, mean of 2 animals): 0.1 % id/organ
- % id/organ, Liver ([6]; 2 hr pi, mean of 2 animals): 17.0 % id/organ
SMILES: CCC(NCCCNC(CC)C(C)=NO)C(C)=NO (stereo not shown) [Compound 3, 4,8-Diaza-3,9-diethylundecane-2,10-dione bis oxime]

- % id/organ, Blood ([6]; 2 min pi, mean of 3 animals): 13.4 % id/organ
- % id/organ, Brain ([6]; 2 min pi, mean of 3 animals): 1.6 % id/organ
- % id/organ, Liver ([6]; 2 min pi, mean of 3 animals): 15.6 % id/organ
- % id/organ, Blood ([6]; 1 hr pi, mean of 3 animals): 5.7 % id/organ
- % id/organ, Brain ([6]; 1 hr pi, mean of 3 animals): 1.5 % id/organ
- % id/organ, Liver ([6]; 1 hr pi, mean of 3 animals): 12.7 % id/organ
SMILES: CCC(=NO)C(C)NCCCNC(C)C(CC)=NO (stereo not shown) [Compound 4, 5,9-Diaza-4,10-dimethyltridecane-3,11-dione bis oxime]
